Key:
[1] = system: Promega Mid-Range Molecular Weight Markers; assay: Detection of proteins during SDS-PAGE electrophoresis (dye in cathode buffer)
Source text: Solutions for the formation and electrophoresis of proteins were made according to the instructions given in Experiments in Gene Fusions, Silhavy, Berman, Enquist, Cold Spring Harbor Laboratory Press, Cold Spring Harbor, N.Y. with the following changes:
a) The SDS concentration in the upper and lower gel buffer components were reduced to result in a 0.05% final SDS concentration in the gel. Thus, the composition of 4× upper gel buffer was 0.5M Tris-HCl, pH 6.8, 0.2 % (w/v) sodium dodecylsulfate (SDS) and the composition of 4× lower gel buffer was 1.5M Tris-HCl, pHS.8, 0.2 % (w/v) SDS.
b) The SDS concentration in the electrophoretic (electrode) buffer was reduced to 0.04% final concentration. Thus, 4× electrode (anode or cathode) buffer was made by dissolving 60 g Tris base, 288 g glycine, and 8 g SDS dissolved in water and then diluting with water to 5 liters. Another name sometimes used for "electrode" buffer is "running" buffer.
c) The SDS concentration in the 2× sample buffer was reduced to 1% final SDS concentration. Thus, 2× sample buffer was made by mixing 0.5 ml of betamercaptoethanol, 0.25 ml of 0.1% (w/v) bromophenol blue, 1 ml of 10 % (w/v) SDS, 3 ml of water, and 5.3 ml of 2× glycerol buffer. 2× glycerol buffer is made by mixing 12.5 ml of 4× upper gel buffer and 20 ml of glycerol and diluting the resulting solution to 60 ml with water. Another name sometimes used for "sample" buffer is "loading" buffer.
d) Electrophoresis was performed using a BIO-RAD miniprotein II electrophoresis apparatus and gels were poured such that i cm of space was present between the bottom of the loading wells and the separating gel.
In other electrophoresis experiments reported in this application, the buffers used were as described above in this example. In some cases, as in this example, where preparation of a solution of dye in 150 ml of cathode (or electrode) buffer is specified, an amount of stock solution of a dye was first added to 150 ml of cathode buffer and then 125 ml of the resulting solution was used to fill the cathode buffer chamber (which holds 125 ml) in the electrophoresis apparatus. In other cases, where addition of stock solution of dye to the cathode buffer is specified without reference to the volume of cathode buffer or with reference to such volume being "125 ml," the stock solution was added directly to 125 ml of cathode buffer already in the cathode buffer chamber.
The samples used were prepared with Promega Mid-Range Molecular Weight Markers solution (Promega Corp., Madison, Wis., USA, Catalog No. V5231) (referred to hereinafter as "Promega Mid-Range [Molecular Weight] Markers or Standards") diluted into Sample Buffer. […]

[2] = system: Promega Mid-Range Molecular Weight Markers; assay: Recovery of proteins separated by gel electrophoresis; conditions: re-run 10% SDS-PAGE, 30% methanol, 4% acetic acid, 1 hour
Procedure: An 8% SDS-PAGE gel was prepared as described above and loaded with Promega Mid-Range Molecular Weight Markers at a concentration of 4 μg of each protein per lane. The gel was run at 160 V with 200 μl of octyl Coomassie (Promega Green 1) stock solution in the cathode buffer (125 ml).
After electrophoresis, the gel segments containing the 97, 66, 55, 43, and 40 kilodalton proteins were excised from four consecutive lanes, minced, and placed in individual 1.5 ml Eppendorf tubes containing 0.5 ml of 50 mM ammonium bicarbonate pH 7.8 containing 0.02% SDS (w/v). The tubes were then incubated at 50° C. for 14 hours.
After that time, the tubes were spun for 1 minute in a microfuge to pellet the minced acrylamide and 0.47 ml of the supernate was removed to new 1.5 ml tubes. Two of the four solutions from each of the eluted protein samples were dried in a Speed-Vac, the other pair was first ultrafiltered through a 5000 dalton cut-off Milligen centrifugal concentrator by centrifugation in a microfuge for 30 minutes. These concentrated solutions were then dried in a Speed Vac.
The dried samples were resuspended in 25 μl of 1× loading buffer and heated at 95° C. for 10 minutes. These samples were then loaded in two 15-well, 0.75 mm 10% SDS-PAGE gels made as above. The gels were then run at 160 V with 200 μl of Promega Green 1 stock solution in the cathode buffer (125 ml). […]

[3] = system: Promega Mid-Range Molecular Weight Markers; assay: Recovery of protein using novel recovery method (liquid reservoir in gel); conditions: 8% SDS-PAGE gel, slots below bands
Source text: Because Promega Green 1 can be used to stain protein during electrophoretic separations, we determined that proteins separated by gel electrophoresis can be recovered into a liquid reservoir placed in the gel. This is possible only with in-situ stained proteins because it would not be obvious where to place the liquid reservoir otherwise.
Accordingly, an 8% SDS-PAGE gel was made, loaded and run as described in the preceding example. After the run was complete, one of the glass plates encasing the gel was removed and 1.0×0.3 cm slots were excised from the gel immediately below the 97, 66, 40, and 31 kilodalton standards The gel was then placed in a flat bed electrophoresis apparatus which had its buffer chambers filled with 25 mM tris base, 192 mM glycine (electrode buffer) to the level of the central, raised portion of the apparatus. The gel was placed in the apparatus such that the acrylamide gel above the remaining glass plate was filled with electrode buffer. The slots were also filled with electrode buffer and electric connection was made between the gel and the buffer chambers by use of Whatman 3 mM paper wicks soaked in transfer buffer and then 160 V was applied to the apparatus for 2 minutes. After this, the buffer in the slots was removed and placed in 1.5 ml Eppendorf tubes, the slots were refilled with fresh electrode buffer and the voltage was reapplied. […]

Structure (SMILES): CCCCCCCC(=O)N(c1ccc(OCC)cc1)c1ccc(C(=C2C=CC(=[N+](CC)Cc3cccc(S(=O)(=O)[O-])c3)C=C2)c2ccc(N(CC)Cc3cccc(S(=O)(=O)O)c3)cc2)cc1 [Promega Green 1]
- lowest protein amount per band visible while the gel was running ([1]; 10% SDS-PAGE, dye in cathode buffer, white plastic card behind gel): 1.0 µg
- lowest protein amount per band visible by the end of the run (most of the bands) ([1]; essentially clear background): 0.5 µg
- detection of recovered proteins [2]: the expected protein bands could be seen in the lanes
- capture of protein bands in liquid reservoir [3]: the desired protein bands had been captured by this method

Source: patent publication US5705649A, “Protein staining compositions and methods” (Promega Corporation, priority 1995, dated 1998)
